For assay [1], the system named is antibodies in the antisera. Type of assay: binding, Balb/c mice.
Assay [2] has as its system antibodies in the antisera. In kind it is binding, Balb/c mice. This is another data set of the same source.

“And” between values parts separate entries of the source, which are not always exact repeats. Equal values may be shown once.

Take aflatoxin G1: the Absorbance in assay [1] was 1.07 and 1.05 and 1.01 and 0.98 and 1.04 and 1.09 and 1.11.
With `COc1cc2c(c3oc4cccc(O)c4c(=O)c13)[C@@H]1C=CO[C@@H]1O2` [aflatoxin biosynthetic precursor ST, Sterigmatocystin], in assay [2], the “IC50 value of the antibody for the aflatoxin biosynthetic precursor ST” value is 0.41 ng/mL.
aflatoxin B2: in assay [1], the Absorbance is 1.08 and 1.06 and 0.99 and 1.07 and 1.01 and 1.02 and 1.04.
aflatoxin G2: in assay [1], the Absorbance was 1.03 and 1.04 and 1.05 and 1.01 and 1.09 and 1.02 and 1.10.

The values are drawn from patent US9718836B2 (priority 2014, dated 2017).
